According to patent publication US20260193264A1, “BENZOYPARAZINE PYRAZINES AND THEIR USES” (FOGHORN THERAPEUTICS INC., priority 2022, published 2026):

How the values were obtained:
[1] = biological target: T1, HiBiT-BRM fusion protein in stable HeLa cell line (Homo sapiens, UniProt P51531); assay: HiBiT-BRM cell-based degradation assay (Nano-Glo HiBiT Lytic Detection, 24 h); set-up: DC50: scale not given here; conditions: HeLa HiBiT-BRM cells; for DC50: read-out: BRM HiBit Degradation IC50; for BRM HiBit Degradation Maximum (%): top dose 30 μM
T1 construct: expressed in transfected cells
How it was run: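 Stable HiBiT-BRM HeLa cells treated 24 h with 10-point 3-fold dilutions, top final dose 30 μM, in duplicate. Luminescence read after lytic LgBiT reagent. Percent degradation was normalised to DMSO (high control) and 2 μM reference BRM/BRG1 degrader (low control).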

[2] = biological target: T2, HiBit-BRG1 fusion protein in stable HeLa cell line expressing HiBit-BRG1 and LgBit (Homo sapiens, UniProt P51532); assay: HiBiT-BRG1 cell-based degradation assay (Nano-Glo HiBiT, 24 h); conditions: HeLa HiBit-BRG1/LgBit cells; for Dmax: top dose 30 μM, read-out: BRG1 HiBit Degradation Maximum (%); for DC50: read-out: BRMG1 HiBit Degradation IC50
T2 construct: expressed in transfected cells
How it was run: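 Stable HeLa line co-expressing HiBiT-BRG1 and LgBiT, compound-treated 24 h; luminescence read after Nano-Glo HiBiT lytic reagent. % degradation normalised between DMSO (high control) and 2 μM reference BRM/BRG1 degrader (low control).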

T1 sequence (P51531 whole entry, the tested form may be a part): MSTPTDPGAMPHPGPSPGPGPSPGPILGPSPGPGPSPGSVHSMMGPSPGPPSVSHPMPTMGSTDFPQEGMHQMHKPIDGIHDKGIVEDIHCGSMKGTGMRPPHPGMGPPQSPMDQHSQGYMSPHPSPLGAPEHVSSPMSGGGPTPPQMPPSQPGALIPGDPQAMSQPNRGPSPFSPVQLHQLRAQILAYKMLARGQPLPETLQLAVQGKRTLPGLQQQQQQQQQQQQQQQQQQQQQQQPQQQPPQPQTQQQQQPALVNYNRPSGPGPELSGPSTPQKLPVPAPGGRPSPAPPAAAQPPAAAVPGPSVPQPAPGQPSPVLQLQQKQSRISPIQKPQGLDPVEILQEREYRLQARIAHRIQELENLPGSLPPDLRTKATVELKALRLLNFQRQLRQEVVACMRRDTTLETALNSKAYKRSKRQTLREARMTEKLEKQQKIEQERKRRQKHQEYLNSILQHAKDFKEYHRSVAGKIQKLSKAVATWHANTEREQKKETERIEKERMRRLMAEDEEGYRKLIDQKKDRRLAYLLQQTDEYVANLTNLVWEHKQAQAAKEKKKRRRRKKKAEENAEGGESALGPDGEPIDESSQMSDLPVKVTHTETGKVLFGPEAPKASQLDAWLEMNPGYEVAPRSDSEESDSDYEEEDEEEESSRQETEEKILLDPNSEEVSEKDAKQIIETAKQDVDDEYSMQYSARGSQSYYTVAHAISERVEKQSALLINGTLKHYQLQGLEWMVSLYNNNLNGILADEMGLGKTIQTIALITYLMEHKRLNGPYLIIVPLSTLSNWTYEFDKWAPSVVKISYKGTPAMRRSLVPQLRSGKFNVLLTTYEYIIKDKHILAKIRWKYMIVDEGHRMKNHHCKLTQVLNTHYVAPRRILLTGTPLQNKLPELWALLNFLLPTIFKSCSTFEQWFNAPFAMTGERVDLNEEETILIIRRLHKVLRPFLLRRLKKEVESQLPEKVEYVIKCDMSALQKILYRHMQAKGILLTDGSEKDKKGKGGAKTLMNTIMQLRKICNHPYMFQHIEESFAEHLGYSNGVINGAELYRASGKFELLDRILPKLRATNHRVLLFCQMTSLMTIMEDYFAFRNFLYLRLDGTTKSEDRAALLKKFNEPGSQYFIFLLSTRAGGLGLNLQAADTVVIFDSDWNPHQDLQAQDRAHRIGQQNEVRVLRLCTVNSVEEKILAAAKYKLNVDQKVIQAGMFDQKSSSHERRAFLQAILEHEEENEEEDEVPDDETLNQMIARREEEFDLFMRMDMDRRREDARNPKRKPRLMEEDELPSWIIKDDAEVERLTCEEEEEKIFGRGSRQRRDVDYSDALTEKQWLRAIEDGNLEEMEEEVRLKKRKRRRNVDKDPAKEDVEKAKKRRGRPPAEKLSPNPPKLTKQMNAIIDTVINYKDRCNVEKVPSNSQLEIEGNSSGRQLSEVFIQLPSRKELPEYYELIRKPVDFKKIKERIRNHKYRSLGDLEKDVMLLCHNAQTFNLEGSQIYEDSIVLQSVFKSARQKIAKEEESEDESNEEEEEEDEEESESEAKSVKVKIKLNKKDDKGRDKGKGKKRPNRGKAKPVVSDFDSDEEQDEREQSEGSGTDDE
T2 sequence (P51532 whole entry, the tested form may be a part): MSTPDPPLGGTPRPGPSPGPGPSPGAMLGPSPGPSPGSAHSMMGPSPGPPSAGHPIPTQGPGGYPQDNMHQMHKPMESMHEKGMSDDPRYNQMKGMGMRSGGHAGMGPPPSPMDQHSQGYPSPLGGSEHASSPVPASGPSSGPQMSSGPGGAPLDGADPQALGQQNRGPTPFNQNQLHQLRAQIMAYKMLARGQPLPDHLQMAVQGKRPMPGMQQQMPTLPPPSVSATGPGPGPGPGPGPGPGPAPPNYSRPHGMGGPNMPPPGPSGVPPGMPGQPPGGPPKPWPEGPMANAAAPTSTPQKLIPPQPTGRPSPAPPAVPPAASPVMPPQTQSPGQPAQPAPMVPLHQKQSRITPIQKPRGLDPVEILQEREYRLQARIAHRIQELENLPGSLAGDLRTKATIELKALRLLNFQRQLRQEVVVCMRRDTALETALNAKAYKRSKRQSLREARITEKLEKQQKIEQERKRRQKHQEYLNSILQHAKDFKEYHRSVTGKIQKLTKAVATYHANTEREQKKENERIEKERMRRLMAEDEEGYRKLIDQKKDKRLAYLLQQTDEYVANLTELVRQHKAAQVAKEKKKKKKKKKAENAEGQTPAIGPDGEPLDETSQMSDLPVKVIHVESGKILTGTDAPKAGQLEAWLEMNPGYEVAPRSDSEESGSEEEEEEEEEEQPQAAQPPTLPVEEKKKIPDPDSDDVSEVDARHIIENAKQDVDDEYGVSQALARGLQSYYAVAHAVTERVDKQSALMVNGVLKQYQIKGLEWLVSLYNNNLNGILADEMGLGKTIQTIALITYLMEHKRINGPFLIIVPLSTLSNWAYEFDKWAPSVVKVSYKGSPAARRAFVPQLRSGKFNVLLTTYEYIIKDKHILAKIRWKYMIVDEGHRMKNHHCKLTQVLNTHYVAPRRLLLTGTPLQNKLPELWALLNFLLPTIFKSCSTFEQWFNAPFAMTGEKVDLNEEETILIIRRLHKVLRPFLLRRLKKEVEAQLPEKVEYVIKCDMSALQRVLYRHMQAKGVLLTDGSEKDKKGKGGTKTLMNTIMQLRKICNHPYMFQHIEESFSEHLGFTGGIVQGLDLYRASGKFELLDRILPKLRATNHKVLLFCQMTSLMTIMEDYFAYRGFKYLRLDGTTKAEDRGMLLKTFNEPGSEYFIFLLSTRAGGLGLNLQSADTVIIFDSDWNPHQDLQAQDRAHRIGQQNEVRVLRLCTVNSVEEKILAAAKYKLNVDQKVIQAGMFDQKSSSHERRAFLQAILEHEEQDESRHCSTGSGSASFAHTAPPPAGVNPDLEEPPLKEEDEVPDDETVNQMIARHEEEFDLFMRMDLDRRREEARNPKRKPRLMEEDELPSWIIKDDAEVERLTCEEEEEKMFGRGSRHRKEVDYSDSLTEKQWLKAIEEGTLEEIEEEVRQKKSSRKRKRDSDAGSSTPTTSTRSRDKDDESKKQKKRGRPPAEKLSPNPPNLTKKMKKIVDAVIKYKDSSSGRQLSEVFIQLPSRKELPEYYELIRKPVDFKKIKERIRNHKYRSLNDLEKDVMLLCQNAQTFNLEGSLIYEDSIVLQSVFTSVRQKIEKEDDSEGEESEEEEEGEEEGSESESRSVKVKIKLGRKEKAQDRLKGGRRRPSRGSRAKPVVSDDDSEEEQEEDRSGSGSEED

SMILES | DC50 [1] [nM] | BRM HiBit Degradation Maximum (%) [1] | Dmax [2] [%] | DC50 [2] [nM]
COC[C@@H]1CN(c2cc([C@H](C(=O)N3C[C@H](O)C[C@H]3C(=O)N[C@@H](C)c3ccc(-c4scnc4C)cc3)C(C)C)on2)CCN1c1ccc2cc(-c3ccccc3O)nnc2c1 [Compound 196, (2S,4R)-4-hydroxy-1-((R)-2-(3-((S)-4-(3-(2-hydroxyphenyl)cinnolin-7-yl)-3-(methoxymethyl)piperazin-1-yl)isoxazol-5-yl)-3-methylbutanoyl)-N-((S)-1-(4-(4-methylthiazol-5-yl)phenyl)ethyl)pyrrolidine-2-carboxamide] | > 10 | B (“B” indicates maximum degradation ≥50%) | < 50 | –
Cc1ncsc1-c1ccc([C@H](C)NC(=O)[C@@H]2C[C@@H](O)CN2C(=O)C(C(C)C)n2cc(N3CCC4(CC3)CN(c3ccc5cc(-c6ccccc6O)nnc5c3)C4)nn2)cc1 (stereo partly drawn) [Compound 197, (2S,4R)-4-hydroxy-1-(2-(4-(2-(3-(2-hydroxyphenyl)cinnolin-7-yl)-2,7-diazaspiro[3.5]nonan-7-yl)-1H-1,2,3-triazol-1-yl)-3-methylbutanoyl)-N-((S)-1-(4-(4-methylthiazol-5-yl)phenyl)ethyl)pyrrolidine-2-carboxamide] | < 10 | A (“A” indicates maximum degradation ≥75%) | > 75 | < 10
Cc1ncsc1-c1ccc([C@H](C)NC(=O)[C@@H]2C[C@@H](O)CN2C(=O)[C@H](C(C)C)n2cc(N3CCN4CCN(c5ccc6cc(-c7ccccc7O)nnc6c5)C[C@H]4C3)nn2)cc1 [Compound 198] | < 10 | A (“A” indicates maximum degradation ≥75%) | > 75 | < 10
Cc1ncsc1-c1ccc([C@H](C)NC(=O)[C@@H]2C[C@@H](O)CN2C(=O)[C@@H](c2cc(C3CC4(C3)CN(c3ccc5cc(-c6ccccc6O)nnc5c3)C4)no2)C(C)C)cc1 [Compound 199, (2S,4R)-4-hydroxy-1-((R)-2-(3-(2-(3-(2-hydroxyphenyl)cinnolin-7-yl)-2-azaspiro[3.3]heptan-6-yl)isoxazol-5-yl)-3-methylbutanoyl)-N-((S)-1-(4-(4-methylthiazol-5-yl)phenyl)ethyl)pyrrolidine-2-carboxamide] | < 10 | A (“A” indicates maximum degradation ≥75%) | > 75 | > 10
CC(C)[C@@H](C(=O)N1C[C@H](O)C[C@H]1C(=O)N[C@@H](C)c1ccc(F)cc1)n1cc(N2CC3(CN(c4ccc5cc(-c6ccccc6O)nnc5c4)C3)C2)nn1 [Compound 201, (2S,4R)-N-((S)-1-(4-fluorophenyl)ethyl)-4-hydroxy-1-((S)-2-(4-(6-(3-(2-hydroxyphenyl)cinnolin-7-yl)-2,6-diazaspiro[3.3]heptan-2-yl)-1H-1,2,3-triazol-1-yl)-3-methylbutanoyl)pyrrolidine-2-carboxamide] | < 10 | A (“A” indicates maximum degradation ≥75%) | > 50 | > 10
CC(C)[C@@H](C(=O)N1C[C@H](O)C[C@H]1C(=O)N[C@@H](C)c1ccc(C#N)cc1)n1cc(N2CC3(CN(c4ccc5cc(-c6ccccc6O)nnc5c4)C3)C2)nn1 [Compound 202, (2S,4R)-N-((S)-1-(4-cyanophenyl)ethyl)-4-hydroxy-1-((S)-2-(4-(6-(3-(2-hydroxyphenyl)cinnolin-7-yl)-2,6-diazaspiro[3.3]heptan-2-yl)-1H-1,2,3-triazol-1-yl)-3-methylbutanoyl)pyrrolidine-2-carboxamide] | < 10 | A (“A” indicates maximum degradation ≥75%) | > 50 | > 10
Cc1ncsc1-c1ccc([C@H](C)NC(=O)[C@@H]2C[C@@H](O)CN2C(=O)[C@H](C(C)C)n2cc(-c3ccc4nnc(-c5ccccc5O)cc4c3C)nn2)cc1 [Compound 203, (2S,4R)-4-hydroxy-1-((S)-2-(4-(3-(2-hydroxyphenyl)-5-methylcinnolin-6-yl)-1H-1,2,3-triazol-1-yl)-3-methylbutanoyl)-N-((S)-1-(4-(4-methylthiazol-5-yl)phenyl)ethyl)pyrrolidine-2-carboxamide] | > 10 | A (“A” indicates maximum degradation ≥75%) | < 50 | –
Cc1ncsc1-c1ccc([C@H](C)NC(=O)[C@@H]2C[C@@H](O)CN2C(=O)[C@H](C(C)C)n2cc(C3CC4(C3)CN(c3ccc5nnc(-c6ccccc6O)cc5c3)C4)nn2)cc1 [Compound 204, (2S,4R)-4-hydroxy-1-((S)-2-(4-(2-(3-(2-hydroxyphenyl)cinnolin-6-yl)-2-azaspiro[3.3]heptan-6-yl)-1H-1,2,3-triazol-1-yl)-3-methylbutanoyl)-N-((S)-1-(4-(4-methylthiazol-5-yl)phenyl)ethyl)pyrrolidine-2-carboxamide] | < 10 | A (“A” indicates maximum degradation ≥75%) | > 75 | < 10
Cc1ncsc1-c1ccc([C@H](C)NC(=O)[C@@H]2C[C@@H](O)CN2C(=O)[C@@H](c2cc(N3CC4(CN(c5cc(C(F)F)c6cc(-c7ccccc7O)nnc6c5)C4)C3)no2)C(C)C)cc1 [Compound 205, (2S,4R)-1-((R)-2-(3-(6-(5-(difluoromethyl)-3-(2-hydroxyphenyl)cinnolin-7-yl)-2,6-diazaspiro[3.3]heptan-2-yl)isoxazol-5-yl)-3-methylbutanoyl)-4-hydroxy-N-((S)-1-(4-(4-methylthiazol-5-yl)phenyl)ethyl)pyrrolidine-2-carboxamide] | < 10 | A (“A” indicates maximum degradation ≥75%) | < 50 | –
Cc1ncsc1-c1ccc([C@H](C)NC(=O)[C@@H]2C[C@@H](O)CN2C(=O)[C@@H](c2cc(N3CC4(C3)CN(c3cc5nnc(-c6ccccc6O)cc5cc3OC(F)F)C4)no2)C(C)C)cc1 [Compound 206, (2S,4R)-1-((R)-2-(3-(6-(6-(difluoromethoxy)-3-(2-hydroxyphenyl)cinnolin-7-yl)-2,6-diazaspiro[3.3]heptan-2-yl)isoxazol-5-yl)-3-methylbutanoyl)-4-hydroxy-N-((S)-1-(4-(4-methylthiazol-5-yl)phenyl)ethyl)pyrrolidine-2-carboxamide] | < 10 | A (“A” indicates maximum degradation ≥75%) | > 50 | > 10
Cc1ncsc1-c1ccc([C@H](C)NC(=O)[C@@H]2C[C@@H](O)CN2C(=O)[C@@H](c2cc(N3CC4(C3)CN(c3cc5nnc(-c6ccccc6O)cc5cc3N(C)C)C4)no2)C(C)C)cc1 [Compound 207, (2S,4R)-1-((R)-2-(3-(6-(6-(dimethylamino)-3-(2-hydroxyphenyl)cinnolin-7-yl)-2,6-diazaspiro[3.3]heptan-2-yl)isoxazol-5-yl)-3-methylbutanoyl)-4-hydroxy-N-((S)-1-(4-(4-methylthiazol-5-yl)phenyl)ethyl)pyrrolidine-2-carboxamide] | < 10 | A (“A” indicates maximum degradation ≥75%) | > 75 | < 10
